# Assay results as given in ChEMBL document CHEMBL5625197, “The mystery of titan hunter: Rationalized striking of the MAPK pathway via Newly synthesized 6-Indolylpyridone-3-Carbonitrile derivatives” (Eur J Med Chem, 2023).
# pIC50: −log10 of the molar value.
# Tests used:
# [1] = test system: SR; assay: cells; assay type: functional; conditions: Homo sapiens, 96 h, time 4 day, read-out: GI
# Description: Growth inhibition of human SR cells at 10 uM incubated for 4 days by MTT assay relative to control
# [2] = test system: RXF 393; assay: cells; assay type: functional; conditions: Homo sapiens, RXF 393, 96 h, time 4 day, read-out: GI
# Description: Growth inhibition of human RXF 393 cells at 10 uM incubated for 4 days by MTT assay relative to control
# [3] = test system: HCT-116; assay: cells; assay type: functional; conditions: Homo sapiens, HCT-116, 96 h, time 4 day, read-out: GI
# Description: Growth inhibition of human HCT-116 cells at 10 uM incubated for 4 days by MTT assay relative to control
# [4] = test system: HOP-92; assay: cells; assay type: functional; conditions: Homo sapiens, HOP-92, 96 h, time 4 day, read-out: GI
# Description: Growth inhibition of human HOP-92 cells at 10 uM incubated for 4 days by MTT assay relative to control
# [5] = test system: HOP-92; assay: Induction of apoptosis in human HOP-92 cells assessed as fold change in PARP1 gene expression by RT-PCR analysis; assay type: functional
# [6] = test system: HOP-92; assay: Induction of apoptosis in human HOP-92 cells assessed as necrosis rate by Annexin V/ PI staining based flow cytometry (reference value: 1.6 %); assay type: functional
# [7] = test system: HOP-92; assay: Induction of apoptosis in human HOP-92 cells assessed as fold change in ratio of Bax/Bcl-2 gene expression by RT-PCR analysis; assay type: functional
# [8] = test system: HOP-92; assay: Inhibition of colony formation in human HOP-92 cells incubated for 24 hrs by crystal violet staining based assay relative to control; assay type: functional
# [9] = test system: HOP-92; assay: Induction of cell cycle arrest in human HOP-92 cells assessed as accumulation of cells at S phase (reference value: 29.57 %); assay type: functional
# [10] = test system: HOP-92; assay: Induction of apoptosis in human HOP-92 cells assessed as fold change in TNFR1 gene expression by RT-PCR analysis; assay type: functional
# [11] = test system: HOP-92; assay: Induction of cell cycle arrest in human HOP-92 cells assessed as accumulation of cells at G2/M phase (reference value: 15.6 %); assay type: functional
# [12] = test system: HOP-92; assay: Induction of cell cycle arrest in human HOP-92 cells assessed as accumulation of cells at G0/G1 phase (reference value: 54.83 %); assay type: functional
# [13] = test system: HOP-92; assay: Inhibition of cell migration in human HOP-92 cells assessed as fold decrease in cell count incubated for 15 to 20 mins by crystal violet staining based trans-well assay; assay type: functional; conditions: time 15-20 min
# [14] = test system: HOP-92; assay: Induction of apoptosis in human HOP-92 cells assessed as late apoptotic rate by Annexin V/ PI staining based flow cytometry (reference value: 0.26 %); assay type: functional
# [15] = test system: HOP-92; assay: Inhibition of cell migration in human HOP-92 cells incubated for 15 to 20 mins by crystal violet staining based trans-well assay relative to control; assay type: functional; conditions: time 15-20 min
# [16] = test system: HOP-92; assay: Induction of apoptosis in human HOP-92 cells assessed as total apoptotic rate by Annexin V/ PI staining based flow cytometry (reference value: 2.28 %); assay type: functional
# [17] = test system: HOP-92; assay: Induction of apoptosis in human HOP-92 cells assessed as early apoptotic rate by Annexin V/ PI staining based flow cytometry (reference value: 0.42 %); assay type: functional
# [18] = test system: HOP-92; assay: Induction of apoptosis in human HOP-92 cells assessed as fold change in caspase-3 gene expression by RT-PCR analysis; assay type: functional
# [19] = test system: HOP-92; assay: Induction of cell cycle arrest in human HOP-92 cells assessed as cell aggregation (reference value: 1.77 %); assay type: functional
# [20] = test system: HOP-92; assay: Induction of apoptosis in human HOP-92 cells assessed as fold change in Bax gene expression by RT-PCR analysis; assay type: functional
# [21] = test system: HOP-92; assay: Induction of apoptosis in human HOP-92 cells assessed as fold change in p53 gene expression by RT-PCR analysis; assay type: functional
# [22] = test system: HOP-92; assay: Induction of apoptosis in human HOP-92 cells assessed as fold change in Bcl-2 gene expression by RT-PCR analysis; assay type: functional
# [23] = test system: HOP-92; assay: Induction of apoptosis in human HOP-92 cells assessed as fold change in caspase-8 gene expression by RT-PCR analysis; assay type: functional
# [24] = test system: HOP-92; assay: Induction of cell cycle arrest in human HOP-92 cells assessed as cell debris (reference value: 2.18 %); assay type: functional
# [25] = test system: HOP-92; assay: Inhibition of cell invasion in human HOP-92 cells incubated for 15 to 20 mins by crystal violet staining based trans-well assay relative to control; assay type: functional; conditions: time 15-20 min
# [26] = test system: HOP-92; assay: Induction of apoptosis in human HOP-92 cells assessed as fold change in caspase-9 gene expression by RT-PCR analysis; assay type: functional
# [27] = Selectivity index, ratio of GI50 for cytotoxicity against human FHC cells to GI50 for cytotoxicity against human HCT-116 cells; assay type: toxicity, cell-based; conditions: FHC cells versus HCT-116 cells, read-out: RatioGI50
# [28] = Selectivity index, ratio of GI50 for cytotoxicity against human PCS-800-011 cells to GI50 for cytotoxicity against human SR cells; assay type: toxicity, cell-based; conditions: PCS-800-011 cells versus SR cells, read-out: RatioGI50
# [29] = Cytotoxicity against human PCS-800-011 cells assessed as fold change in cell growth inhibition incubated for 4 days by MTT assay; assay type: toxicity, cell-based; conditions: pcs-800-011, 96 h, time 4 day
# [30] = target: Epidermal growth factor receptor (Homo sapiens, UniProt P00533); assay: Inhibition of wild type EGFR (unknown origin)
# Sequence of Epidermal growth factor receptor (Homo sapiens, UniProt P00533) (P00533 whole entry): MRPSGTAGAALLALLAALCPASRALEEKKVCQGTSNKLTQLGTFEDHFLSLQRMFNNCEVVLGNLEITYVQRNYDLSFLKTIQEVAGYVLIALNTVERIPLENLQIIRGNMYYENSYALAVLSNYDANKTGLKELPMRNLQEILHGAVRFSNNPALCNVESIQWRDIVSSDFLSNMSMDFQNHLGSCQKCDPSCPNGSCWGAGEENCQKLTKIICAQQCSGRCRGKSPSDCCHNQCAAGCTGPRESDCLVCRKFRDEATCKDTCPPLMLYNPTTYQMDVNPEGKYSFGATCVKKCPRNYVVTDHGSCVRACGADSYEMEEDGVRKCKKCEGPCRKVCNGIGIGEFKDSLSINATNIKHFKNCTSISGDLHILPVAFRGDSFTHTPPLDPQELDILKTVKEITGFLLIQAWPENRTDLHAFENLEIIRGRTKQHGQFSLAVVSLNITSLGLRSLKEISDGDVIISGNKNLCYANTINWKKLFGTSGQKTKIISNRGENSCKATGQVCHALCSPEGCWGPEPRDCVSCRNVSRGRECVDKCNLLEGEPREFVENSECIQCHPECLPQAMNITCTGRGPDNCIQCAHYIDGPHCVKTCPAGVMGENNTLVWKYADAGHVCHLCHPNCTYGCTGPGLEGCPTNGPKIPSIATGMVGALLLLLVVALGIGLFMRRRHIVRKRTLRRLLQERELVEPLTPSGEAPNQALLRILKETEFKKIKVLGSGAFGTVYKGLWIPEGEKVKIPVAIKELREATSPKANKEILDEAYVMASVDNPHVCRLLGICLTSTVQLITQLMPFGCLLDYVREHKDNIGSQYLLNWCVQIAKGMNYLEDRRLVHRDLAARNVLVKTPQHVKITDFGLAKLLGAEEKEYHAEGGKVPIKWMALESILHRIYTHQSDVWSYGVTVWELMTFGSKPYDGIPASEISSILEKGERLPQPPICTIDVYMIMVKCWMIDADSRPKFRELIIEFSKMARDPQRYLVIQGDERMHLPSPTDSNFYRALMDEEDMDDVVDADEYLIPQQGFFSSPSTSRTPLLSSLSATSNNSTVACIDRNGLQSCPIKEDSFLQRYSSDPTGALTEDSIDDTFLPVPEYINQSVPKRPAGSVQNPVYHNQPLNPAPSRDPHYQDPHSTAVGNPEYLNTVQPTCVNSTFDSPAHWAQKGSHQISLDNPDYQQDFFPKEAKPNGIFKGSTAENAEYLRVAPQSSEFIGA
# [31] = Selectivity index, ratio of GI50 for cytotoxicity against human HEK293 cells to GI50 for cytotoxicity against human RXF 393 cells
# [32] = test system: RXF 393; assay: Cytotoxicity against human RXF 393 cells assessed as cell growth inhibition incubated for 4 days by MTT assay; assay type: functional; conditions: RXF 393, 96 h, time 4 day
# [33] = target: Serine/threonine-protein kinase B-raf (Homo sapiens, UniProt P15056); assay: Inhibition of wild type B-RAF (unknown origin)
# Sequence of Serine/threonine-protein kinase B-raf (Homo sapiens, UniProt P15056) (P15056 whole entry): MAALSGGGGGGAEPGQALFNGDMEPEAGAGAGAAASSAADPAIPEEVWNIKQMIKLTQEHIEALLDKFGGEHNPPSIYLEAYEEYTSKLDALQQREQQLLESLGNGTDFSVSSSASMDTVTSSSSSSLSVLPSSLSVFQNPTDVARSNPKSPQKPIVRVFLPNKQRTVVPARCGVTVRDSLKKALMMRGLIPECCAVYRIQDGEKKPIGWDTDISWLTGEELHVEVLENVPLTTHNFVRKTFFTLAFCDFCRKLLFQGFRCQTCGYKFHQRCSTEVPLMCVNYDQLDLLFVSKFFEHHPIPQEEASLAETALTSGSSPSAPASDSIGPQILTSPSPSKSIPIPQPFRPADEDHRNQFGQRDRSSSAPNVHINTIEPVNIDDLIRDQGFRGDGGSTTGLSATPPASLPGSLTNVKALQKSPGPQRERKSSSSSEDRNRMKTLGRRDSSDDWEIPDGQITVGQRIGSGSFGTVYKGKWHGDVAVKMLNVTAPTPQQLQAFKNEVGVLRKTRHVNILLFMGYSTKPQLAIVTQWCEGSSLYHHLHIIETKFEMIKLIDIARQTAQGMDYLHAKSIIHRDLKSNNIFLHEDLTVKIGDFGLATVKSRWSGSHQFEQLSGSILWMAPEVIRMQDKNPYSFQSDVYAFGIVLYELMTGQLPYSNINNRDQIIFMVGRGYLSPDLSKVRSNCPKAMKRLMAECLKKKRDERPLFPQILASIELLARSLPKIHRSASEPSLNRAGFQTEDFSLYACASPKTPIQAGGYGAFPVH
# [34] = Selectivity index, ratio of GI50 for cytotoxicity against human MRC5 cells to GI50 for cytotoxicity against human HOP-92 cells
# [35] = test system: HOP-92; assay: Cytotoxicity against human HOP-92 cells assessed as cell growth inhibition incubated for 4 days by MTT assay; assay type: functional; conditions: HOP-92, 96 h, time 4 day
# [36] = target: Epidermal growth factor receptor (Homo sapiens, UniProt P00533, T790M); assay: Inhibition of EGFR T790M mutant (unknown origin)
# Sequence of Epidermal growth factor receptor (Homo sapiens, UniProt P00533, T790M) (P00533 25-1210 T790M limits assumed): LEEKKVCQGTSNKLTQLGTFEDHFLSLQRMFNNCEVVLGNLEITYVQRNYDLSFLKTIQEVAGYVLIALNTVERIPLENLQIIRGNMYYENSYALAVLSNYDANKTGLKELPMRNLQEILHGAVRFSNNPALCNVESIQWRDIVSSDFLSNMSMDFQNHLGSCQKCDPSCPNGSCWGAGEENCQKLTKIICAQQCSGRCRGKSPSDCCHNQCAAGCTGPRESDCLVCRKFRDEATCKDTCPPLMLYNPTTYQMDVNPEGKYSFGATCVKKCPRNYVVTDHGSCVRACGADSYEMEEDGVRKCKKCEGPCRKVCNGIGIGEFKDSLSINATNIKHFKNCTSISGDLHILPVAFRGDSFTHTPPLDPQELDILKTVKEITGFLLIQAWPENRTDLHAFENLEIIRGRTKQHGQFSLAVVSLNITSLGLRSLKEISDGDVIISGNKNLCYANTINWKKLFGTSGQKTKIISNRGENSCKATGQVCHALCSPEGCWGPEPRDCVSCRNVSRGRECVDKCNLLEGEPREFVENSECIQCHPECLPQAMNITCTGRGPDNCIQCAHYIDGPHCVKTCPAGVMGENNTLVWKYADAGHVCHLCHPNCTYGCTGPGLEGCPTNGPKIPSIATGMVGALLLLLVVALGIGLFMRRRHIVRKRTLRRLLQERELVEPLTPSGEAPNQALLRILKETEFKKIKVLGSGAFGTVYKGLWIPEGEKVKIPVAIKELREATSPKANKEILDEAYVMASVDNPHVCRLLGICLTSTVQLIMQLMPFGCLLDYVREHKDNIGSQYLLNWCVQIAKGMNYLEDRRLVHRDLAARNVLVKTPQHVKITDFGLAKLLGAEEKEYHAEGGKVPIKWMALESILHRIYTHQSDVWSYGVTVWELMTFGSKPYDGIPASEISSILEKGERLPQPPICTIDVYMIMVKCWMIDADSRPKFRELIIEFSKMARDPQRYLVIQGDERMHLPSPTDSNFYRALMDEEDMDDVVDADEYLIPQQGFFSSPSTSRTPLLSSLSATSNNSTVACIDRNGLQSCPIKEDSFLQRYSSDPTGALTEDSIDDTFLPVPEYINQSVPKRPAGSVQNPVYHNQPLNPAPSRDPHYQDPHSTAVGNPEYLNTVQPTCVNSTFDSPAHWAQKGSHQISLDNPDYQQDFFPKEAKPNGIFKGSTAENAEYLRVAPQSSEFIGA
# [37] = target: Cyclin-dependent kinase 4 (Homo sapiens, UniProt P11802); assay: Inhibition of CDK4 (unknown origin)
# Sequence of Cyclin-dependent kinase 4 (P11802 whole entry): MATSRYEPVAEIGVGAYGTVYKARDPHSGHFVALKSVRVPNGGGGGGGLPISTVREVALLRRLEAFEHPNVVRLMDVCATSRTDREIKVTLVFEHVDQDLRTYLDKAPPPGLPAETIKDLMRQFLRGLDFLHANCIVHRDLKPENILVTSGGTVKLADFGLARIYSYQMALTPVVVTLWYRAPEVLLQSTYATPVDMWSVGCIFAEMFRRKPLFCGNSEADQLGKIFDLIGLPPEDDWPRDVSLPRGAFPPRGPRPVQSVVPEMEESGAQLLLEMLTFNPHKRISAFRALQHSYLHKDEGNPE
# [38] = target: Cyclin-dependent kinase 6 (Homo sapiens, UniProt Q00534); assay: Inhibition of CDK6 (unknown origin)
# Sequence of Cyclin-dependent kinase 6 (Q00534 whole entry): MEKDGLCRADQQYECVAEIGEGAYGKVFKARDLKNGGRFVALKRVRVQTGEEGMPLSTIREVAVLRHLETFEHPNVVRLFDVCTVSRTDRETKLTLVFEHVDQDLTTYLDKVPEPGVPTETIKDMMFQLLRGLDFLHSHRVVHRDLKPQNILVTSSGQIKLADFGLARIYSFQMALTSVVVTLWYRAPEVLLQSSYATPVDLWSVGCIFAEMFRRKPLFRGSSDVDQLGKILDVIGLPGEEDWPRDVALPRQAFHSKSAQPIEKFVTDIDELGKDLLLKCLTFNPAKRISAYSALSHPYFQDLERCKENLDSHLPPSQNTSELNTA
# [39] = Cytotoxicity against human FHC cells assessed as cell growth inhibition incubated for 4 days by MTT assay
# [40] = Cytotoxicity against human PCS-800-011 cells assessed as cell growth inhibition incubated for 4 days by MTT assay
# [41] = target: Serine/threonine-protein kinase B-raf (Homo sapiens, UniProt P15056, V600E); assay: Inhibition of B-RAF V600E mutant (unknown origin)
# Sequence of Serine/threonine-protein kinase B-raf (Homo sapiens, UniProt P15056, V600E) (P15056 2-766 V600E limits assumed): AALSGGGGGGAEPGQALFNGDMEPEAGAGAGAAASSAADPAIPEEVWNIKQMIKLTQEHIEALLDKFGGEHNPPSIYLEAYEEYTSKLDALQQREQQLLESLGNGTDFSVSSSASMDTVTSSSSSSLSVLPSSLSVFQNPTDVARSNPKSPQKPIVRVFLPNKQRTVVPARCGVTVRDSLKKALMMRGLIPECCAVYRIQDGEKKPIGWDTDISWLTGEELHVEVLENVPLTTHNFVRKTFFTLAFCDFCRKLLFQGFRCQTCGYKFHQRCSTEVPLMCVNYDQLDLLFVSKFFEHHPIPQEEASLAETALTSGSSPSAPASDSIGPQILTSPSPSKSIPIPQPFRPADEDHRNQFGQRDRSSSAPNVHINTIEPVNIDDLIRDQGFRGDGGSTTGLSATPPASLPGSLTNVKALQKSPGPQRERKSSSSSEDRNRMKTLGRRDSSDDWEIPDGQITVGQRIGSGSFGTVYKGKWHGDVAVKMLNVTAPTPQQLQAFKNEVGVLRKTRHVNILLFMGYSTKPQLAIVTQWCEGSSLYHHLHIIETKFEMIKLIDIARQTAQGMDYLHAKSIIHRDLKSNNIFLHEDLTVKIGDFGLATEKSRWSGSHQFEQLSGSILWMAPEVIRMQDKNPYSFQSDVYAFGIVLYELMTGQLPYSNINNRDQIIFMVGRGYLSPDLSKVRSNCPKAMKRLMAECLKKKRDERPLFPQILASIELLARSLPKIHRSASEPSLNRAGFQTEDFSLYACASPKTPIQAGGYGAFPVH
# [42] = test system: SR; assay: Cytotoxicity against human SR cells assessed as cell growth inhibition incubated for 4 days by MTT assay; assay type: functional; conditions: 96 h, time 4 day
# [43] = target: Hepatocyte growth factor receptor (Homo sapiens, UniProt P08581); assay: Inhibition of c-Met (unknown origin)
# [44] = Cytotoxicity against human HEK293 cells assessed as cell growth inhibition incubated for 4 days by MTT assay
# [45] = test system: HOP-92; assay: Induction of apoptosis in human HOP-92 cells assessed as PARP1 gene expression level by RT-PCR analysis relative to control; assay type: functional
# [46] = test system: HCT-116; assay: Cytotoxicity against human HCT-116 cells assessed as cell growth inhibition incubated for 4 days by MTT assay; assay type: functional; conditions: HCT-116, 96 h, time 4 day
# [47] = Cytotoxicity against human MRC5 cells assessed as cell growth inhibition incubated for 4 days by MTT assay
smiles,measurement,setting,value
N#Cc1c(-c2ccc(F)c(F)c2)cc(-c2c[nH]c3ccccc23)[nH]c1=O,inhibition of growth at 10 µM,[1],55.9%
same,inhibition of growth at 10 µM,[2],65.7%
same,inhibition of growth at 10 µM,[3],51%
same,inhibition of growth at 10 µM,[4],53.1%
COc1cccc2c1C(=O)c1c(O)c3c(c(O)c1C2=O)C[C@@](O)(C(=O)CO)C[C@@H]3O[C@H]1C[C@H](N)[C@H](O)[C@H](C)O1 [DOXORUBICIN],fold change (FC),[5],0.23
same,Activity,[6],9.28%
same,fold change (FC),[7],21.4
same,inhibition (INH),[8],44.9%
same,Activity,[9],21.73%
same,fold change (FC),[10],0.24
same,Activity,[11],29.74%
same,Activity,[12],48.53%
same,fold change (FC),[13],3.8
same,Activity,[14],26.57%
same,inhibition (INH),[15],73.54%
same,Activity,[16],52.49%
same,Activity,[17],16.64%
same,fold change (FC),[18],14.3
same,Activity,[19],2.15%
same,fold change (FC),[20],6.62
same,fold change (FC),[21],6.97
same,fold change (FC),[22],0.31
same,fold change (FC),[23],4.36
same,Activity,[24],2.44%
same,inhibition (INH),[25],41.96%
same,fold change (FC),[26],12.4
N#Cc1c(-c2ccc(Cl)cc2Cl)cc(-c2c[nH]c3ccccc23)[nH]c1=O,fold change (FC),[5],0.23
same,inhibition of growth at 10 µM,[1],74.7%
same,Activity,[6],7.62%
same,selectivity ratio,[27],10.6
same,fold change (FC),[7],30.5
same,selectivity ratio,[28],18
same,inhibition (INH),[8],61.6%
same,fold change (FC),[29],2.3
same,Activity,[9],34.11%
same,fold change (FC),[10],0.27
same,Activity,[11],6.71%
same,pIC50,[30],6.55
same,inhibition of growth at 10 µM,[2],58.4%
same,Activity,[12],59.18%
same,inhibition of growth at 10 µM,[3],82.8%
same,fold change (FC),[13],2.6
same,Activity,[14],14.91%
same,RatioGI50,[31],7.18
same,inhibition (INH),[15],61.59%
same,Activity,[16],46.71%
same,GI50,[32],3.12 µM
same,pIC50,[33],6.95
same,RatioGI50,[34],37.87
same,Activity,[17],24.18%
same,fold change (FC),[18],7.93
same,GI50,[35],0.75 µM
same,pIC50,[36],7.16
same,Activity,[19],1.88%
same,fold change (FC),[20],5.49
same,pIC50,[37],7.02
same,pIC50,[38],6.74
same,GI50 at 96 h,[39],26.8 µM
same,GI50 at 96 h,[40],49.7 µM
same,pIC50,[41],7.08
same,inhibition of growth at 10 µM,[4],79.8%
same,fold change (FC),[21],5.97
same,GI50,[42],2.77 µM
same,fold change (FC),[22],0.18
same,fold change (FC),[23],2.99
same,pIC50,[43],6.69
same,GI50 at 96 h,[44],22.4 µM
same,Activity,[45],20%
same,GI50,[46],2.53 µM
same,GI50 at 96 h,[47],28.5 µM
same,Activity,[24],2.12%
same,inhibition (INH),[25],49.99%
same,fold change (FC),[26],6.75
CN[C@@H]1C[C@H]2O[C@@](C)([C@@H]1OC)n1c3ccccc3c3c4c(c5c6ccccc6n2c5c31)C(=O)NC4 [STAUROSPORINE],GI50,[32],0.95 µM
N#Cc1c(-c2ccc(Cl)c(Cl)c2)cc(-c2c[nH]c3ccccc23)[nH]c1=O,inhibition of growth at 10 µM,[1],71.8%
same,selectivity ratio,[27],3.86
same,selectivity ratio,[28],8.02
same,fold change (FC),[29],3.5
same,inhibition of growth at 10 µM,[2],75.8%
same,inhibition of growth at 10 µM,[3],76.5%
same,RatioGI50,[31],2.56
same,GI50,[32],16.6 µM
same,RatioGI50,[34],16.3
same,GI50,[35],3.44 µM
same,GI50 at 96 h,[39],41 µM
same,GI50 at 96 h,[40],73.6 µM
same,inhibition of growth at 10 µM,[4],73.3%
same,GI50,[42],9.17 µM
same,GI50 at 96 h,[44],42.6 µM
same,GI50,[46],10.6 µM
same,GI50 at 96 h,[47],56.1 µM
COc1cc(-c2cc(-c3c[nH]c4ccccc34)[nH]c(=O)c2C#N)ccc1O,inhibition of growth at 10 µM,[1],52.1%
same,inhibition of growth at 10 µM,[2],65%
same,inhibition of growth at 10 µM,[3],64.4%
same,inhibition of growth at 10 µM,[4],53.5%
N#Cc1c(-c2ccccc2[N+](=O)[O-])cc(-c2c[nH]c3ccccc23)[nH]c1=O,inhibition of growth at 10 µM,[1],69%
same,inhibition of growth at 10 µM,[2],64.8%
same,inhibition of growth at 10 µM,[3],59.5%
same,inhibition of growth at 10 µM,[4],68.5%
